# Measured values: patent publication US8389539B2, “Azacyclic derivatives” (Hoffman-La Roche Inc., priority 2009, dated 2013)
# Target: T1, human HSL (Homo sapiens, UniProt Q05469)
# T1 construct: overlapping PCR to generate a full length human HSL ORF with a 3′-His6 tag; His6 (C); made in house; host or cells: High 5 insect cells (baculovirus, pFast-BAC)
# T1 sequence (Q05469 1-1076): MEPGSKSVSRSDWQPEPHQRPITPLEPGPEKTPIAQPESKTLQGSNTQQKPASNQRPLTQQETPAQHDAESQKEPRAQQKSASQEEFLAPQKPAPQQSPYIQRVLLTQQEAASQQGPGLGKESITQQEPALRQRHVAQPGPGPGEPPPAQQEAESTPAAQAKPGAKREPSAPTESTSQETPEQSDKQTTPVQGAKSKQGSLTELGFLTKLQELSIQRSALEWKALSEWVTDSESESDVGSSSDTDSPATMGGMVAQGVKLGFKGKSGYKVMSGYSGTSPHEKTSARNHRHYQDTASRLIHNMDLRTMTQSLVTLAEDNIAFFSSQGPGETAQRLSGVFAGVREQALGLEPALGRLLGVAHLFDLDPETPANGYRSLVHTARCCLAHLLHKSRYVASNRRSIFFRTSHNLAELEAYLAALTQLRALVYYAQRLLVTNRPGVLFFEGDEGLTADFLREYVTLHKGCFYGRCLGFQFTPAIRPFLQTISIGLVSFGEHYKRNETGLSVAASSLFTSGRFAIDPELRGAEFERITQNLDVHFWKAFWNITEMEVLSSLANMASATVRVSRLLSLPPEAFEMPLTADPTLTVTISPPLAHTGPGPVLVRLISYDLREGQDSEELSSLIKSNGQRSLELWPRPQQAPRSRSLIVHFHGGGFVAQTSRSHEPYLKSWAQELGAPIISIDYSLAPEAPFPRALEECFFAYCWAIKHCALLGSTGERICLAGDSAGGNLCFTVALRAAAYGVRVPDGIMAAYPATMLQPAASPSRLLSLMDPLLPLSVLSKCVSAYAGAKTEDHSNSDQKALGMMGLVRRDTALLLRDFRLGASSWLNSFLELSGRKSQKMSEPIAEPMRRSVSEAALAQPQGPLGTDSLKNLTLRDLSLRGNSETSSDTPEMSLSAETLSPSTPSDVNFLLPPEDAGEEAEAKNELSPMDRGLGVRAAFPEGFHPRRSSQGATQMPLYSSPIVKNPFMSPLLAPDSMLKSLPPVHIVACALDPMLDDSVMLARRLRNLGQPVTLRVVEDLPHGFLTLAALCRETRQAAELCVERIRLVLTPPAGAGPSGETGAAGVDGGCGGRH
# Assay: Human Hormone-Sensitive Lipase (HSL) enzyme inhibition assay (colorimetric, DMPT substrate)
# Assay type: biochemical
# Settings: human full length HSL-His6, 2,3-dimercapto-1-propanol tributyrate substrate, 37° C. 20 minutes, absorbance at 405 nm; read-out: HSL hum IC50
# Procedure: 1) Cloning: cDNA was prepared from commercial human brain polyA+ RNA and used as a template in overlapping PCR to generate a full length human HSL ORF with a 3′-His6 tag. This full length insert was cloned into the pFast-BAC vector and the DNA-sequence of several single clones was verified. DNA from a correct full length clone with the 3′His6 tag was used to transform the E. coli strain DH10BAC. Resulting bacmid DNA was used to generate a titered baculovirus stock for protein generation.
# Cells were thawed. […] was done at 3×30 sec., Lubrol PX was added to 0.2% final concentration followed by stirring for 15 min. at 4° C. and centrifugation at 25 k×g, 60 min., 4° C. […] Supernatant was removed, the resin washed in the centrifuge vessel using 5 volumes of Base Buffer containing 0.2% Lubrol PX. Centrifugation was done again, then the supernatant discarded. The resin was poured onto a 0.8 μm membrane in a disposable filter unit (Nalge 450-0080), and washed with 5 volumes of Base Buffer containing 0.2% Lubrol PX. It was then washed with 30 volumes of Base Buffer containing 60 mM imidazole pH 7.5 at 4° C. The protein was eluated with 5 volumes of 25 mM Tris-Cl, 300 mM NaCl, 200 mM imidazole, 10 mM 2-mercaptoethanol, pH 7.5 at 4° C. by tumbling resin with buffer end-over-end, 30 min., 4° C. The resin was captured on a 0.2 μm membrane disposable filter unit (Millipore SCGP U02 RE) and the eluate collected in the reservoir. The eluate was concentrated using a 30 k MWCO centrifugal filter device (Sartorius Vivascience Vivacell 100, VC1022), to 20 ml. It was then dialyzed overnight at 4° C., two times against 2 L of 10% glycerol, 25 mM Tris-Cl, 300 mM NaCl, 0.2 mM EDTA, 0.2 mM DTT, pH 7.5 at 4° C. The protein was filtered using a 0.22 μm disposable filter unit (Millipore SCGP00525). The protein concentration was calculated from absorbance at 280 nm, using 280=0.67 cm-1 mg-1. […] The protein was stored at −80° C.
# Human Hormone-Sensitive Lipase (HSL) Enzyme Inhibition Assay:
# HSL enzyme activity was measured by a colorimetric assay using 2,3-dimercapto-1-propanol tributyrate (Aldrich, St. Louis, Mo.) as a substrate. Typically, 1.5 mM 2,3-dimercapto-1-propanol tributyrate (DMPT) in 100 mM MOPS, pH 7.2, 0.2 mg/ml fatty acid-free BSA was prepared by sonication at 4° C. to homogenous suspension. Test compounds (2 mM stock in DMSO) were diluted 3 fold in series in DMSO. Compound solutions were diluted 24 fold in 1.5 mM DMPT containing solution and 18 ul per well was added to 384-well microplates (Corning Costar). Twelve microliters per well of human HSL (15 ug/ml) was added and the reaction mixture was incubated at 37° C. for 20 minutes. Six microliters of 12 mM dithio-bis-(2-nitrobenzoic acid) (DTNB) in DMSO plus 1.2% SDS and 0.6% Triton X-100 were added and the mixture was incubated at room temperature for 15 minutes. Product production was monitored by reading absorbance at 405 nm on an Envision Reader (PerkinElmer Life and Analytical Sciences, Shelton, Conn.).
row,Compound,IC50
1,"C[C@@H](Oc1ccc(N2CCC3(CCN(CC(O)c4ccc(Cl)cc4Cl)CC3)C2=O)cc1)C(F)(F)F (stereo partly drawn) [Example 51, 8-[2-(2,4-Dichloro-phenyl)-2-hydroxy-ethyl]-2-[4-((R)-2,2,2-trifluoro-1-methyl-ethoxy)-phenyl]-2,8-diaza-spiro[4.5]decan-1-one]",22 nM
2,"C[C@H](Oc1ccc(N2CCC3(CCN(CC(O)c4ccc(Cl)cc4Cl)CC3)C2=O)cc1)C(F)(F)F (stereo partly drawn) [Example 52, 8-[2-(2,4-Dichloro-phenyl)-2-hydroxy-ethyl]-2-[4-((S)-2,2,2-trifluoro-1-methyl-ethoxy)-phenyl]-2,8-diaza-spiro[4.5]decan-1-one]",20 nM
3,"C[C@H](Oc1ccc(N2CCC3(CCN(CC(O)c4ccc(Cl)cc4Cl)CC3)C2=O)cn1)C(F)(F)F (stereo partly drawn) [Example 53, 8-[2-(2,4-Dichloro-phenyl)-2-hydroxy-ethyl]-2-[6-((S)-2,2,2-trifluoro-1-methyl-ethoxy)-pyridin-3-yl]-2,8-diaza-spiro[4.5]decan-1-one]",43 nM
4,"C[C@H](Oc1ccc(N2CCC3(CCN(CC(O)c4c(F)cccc4Cl)CC3)C2=O)cc1)C(F)(F)F (stereo partly drawn) [Example 54, 8-[2-(2-Chloro-6-fluoro-phenyl)-2-hydroxy-ethyl]-2-[4-((S)-2,2,2-trifluoro-1-methyl-ethoxy)-phenyl]-2,8-diaza-spiro[4.5]decan-1-one]",29 nM
5,"C[C@H](Oc1ccc(N2CCC3(CCN(CC(O)c4c(F)cccc4Cl)CC3)C2=O)cn1)C(F)(F)F (stereo partly drawn) [Example 55, 8-[2-(2-Chloro-6-fluoro-phenyl)-2-hydroxy-ethyl]-2-[6-((S)-2,2,2-trifluoro-1-methyl-ethoxy)-pyridin-3-yl]-2,8-diaza-spiro[4.5]decan-1-one]",38 nM

# Continued, values first:
row,IC50,Compound
1,23 nM,"C[C@@H](Oc1ccc(N2CCC3(CCN(CC(O)c4c(F)cccc4Cl)CC3)C2=O)cc1)C(F)(F)F (stereo partly drawn) [Example 48, 8-[2-(2-Chloro-6-fluoro-phenyl)-2-hydroxy-ethyl]-2-[4-((R)-2,2,2-trifluoro-1-methyl-ethoxy)-phenyl]-2,8-diaza-spiro[4.5]decan-1-one]"
2,42 nM,"C[C@@H](Oc1ccc(N2CCC3(CCN(CC(O)c4c(F)cccc4Cl)CC3)C2=O)cn1)C(F)(F)F (stereo partly drawn) [Example 49, 8-[2-(2-Chloro-6-fluoro-phenyl)-2-hydroxy-ethyl]-2-[6-((R)-2,2,2-trifluoro-1-methyl-ethoxy)-pyridin-3-yl]-2,8-diaza-spiro[4.5]decan-1-one]"
3,18 nM,"O=C1N(c2ccc(CC(F)(F)F)cc2)CCC12CCN(CC(O)c1c(F)cccc1Cl)CC2 (centres unmarked) [Example 50, 8-[2-(2-Chloro-6-fluoro-phenyl)-2-hydroxy-ethyl]-2-[4-(2,2,2-trifluoro-ethyl)-phenyl]-2,8-diaza-spiro[4.5]decan-1-one]"
